The results in this text go back to PubChem BioAssay AID463206 (Broad Institute, 2010).

Calls of active or inactive are those of the source.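 How the source made its calls: active means caspase luminescence falls with dose and the half-maximal concentration AC50 from the fitted curve is at or below a set limit; inconclusive means flat fit at 30 to 70% signal loss, or invalid fit; inactive means AC50 above the limit, or signal rises instead.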

A word on the AC50: it is the concentration at which the activity in the assay is half-maximal.

For this assay, the system named is INS-1E cytokine-induced caspase-3/7, Caspase-Glo luminescence, 48 h. In words: suppression of cytokine-driven beta-cell apoptosis – INS-1E rat cells, luminescence, orthogonal assay for beta-cell apoptosis protection project, dose response (AID 463206).

Consider `Oc1ccccc1/C=N/Nc1nccnc1Cl`, for which the AC50 is > 26 µM (inactive). Consider `O=[N+]([O-])c1ccc(O)c(/C=N/NC(=S)Nc2ccc(Cl)cc2Cl)c1`, for which the AC50 was > 26 µM (inactive). Take `C=CC[n+]1c(/C=C2\C=Cc3cc(C)ccc3N2CC)ccc2ccccc21`: the AC50 is > 26 µM (inactive). Take `O=C(N/N=C/c1ccccc1O)c1cccc(C(F)(F)F)c1`: the AC50 is > 26 µM (inactive). For `O=C(N/N=C/c1c(O)ccc2ccccc12)c1cccnc1`, the AC50 was > 26 µM (inactive). For the molecule `CCCCCCSc1cc(-c2nc3ccc(C)cn3c2NCc2ccccc2)ccc1OC`, the AC50 was > 26 µM (inactive). The figure for `Cc1ccc(-c2cc(-c3ccc(C)cc3)[n+](-c3ccccc3)c(-c3ccc(C)cc3)c2)cc1` is > 26 µM (inactive).

In the case of `Cc1cc(C(C)(C)C)cc(C)c1Cn1c2[n+](c3ccc(C(F)(F)F)cc31)CCCCC2`, the AC50 is > 26 µM (inactive). For the molecule `O=C1C(=O)c2ccccc2-c2ccccc21`, the AC50 is > 26 µM (inactive). Take `CCN1c2ccccc2N(C)C1(C)c1ccccc1` (stereo not drawn): the AC50 was > 26 µM (inactive). `O=C1C(C2=NC(c3ccccn3)C3C(=O)N(c4ccc(OC(F)(F)F)cc4)C(=O)C23)=C(O)c2ccccc21` (stereo not drawn): the AC50 was > 26 µM (inactive).

For `COc1ccc2nc3cc(Cl)ccc3c(Nc3cc(CN4CCCC4)c(O)c(CN4CCCC4)c3)c2n1`, the AC50 was > 26 µM (inactive). Take `O=S1(=O)C=C(Sc2nnc(-c3ccccc3)o2)c2ccccc21`: the AC50 was > 26 µM (inactive). With `Cc1onc(-c2ccccc2)c1C(=O)NC(=S)NNC(=O)c1ccc(O)cc1O`, the AC50 was > 26 µM (inactive). Consider `CN(C)S(=O)(=O)c1ccc(Nc2nc(C3CC3)nc3c2nnn3Cc2ccccc2Cl)cc1`, for which the AC50 was > 26 µM (inactive).

For `COc1cccc(/C=N/NC(=O)c2cc3cc([N+](=O)[O-])ccc3s2)c1O`, the AC50 was > 26 µM (inactive). In the case of `CC(C)(C)n1[nH]c2c3c(ccc2c1=O)C(=O)c1ccccc1C3=O`, the AC50 is > 26 µM (inactive). `O=C(CSC1=NCCS1)Nc1ccnc2ccccc12`: the AC50 was > 26 µM (inactive). The result for `CC(=O)c1c(C)n(CC(=O)NCc2ccco2)c2ccccc12` reads > 26 µM (inactive). On to `COc1ccc(Cc2nnc(N/N=C/c3ccc(O)cc3)[nH]c2=O)cc1OC`, for which the AC50 is > 26 µM (inactive). In the case of `Cc1ccc(S(=O)(=O)Nc2ccccc2C(=O)Nc2nc(-c3ccc(F)cc3)cs2)cc1`, the AC50 is > 26 µM (inactive). The result for `CN(C1=C(NC(=O)c2ccc(Cl)cc2)C(=O)c2ccccc2C1=O)c1ccccc1` reads > 26 µM (inactive); that for `CN1/C(=C\C=C2/SC(=S)NC2=O)C(C)(C)c2ccccc21`, > 26 µM (inactive); that for `COc1ccc(NC(=O)/C(Cl)=C(/Cl)S(=O)Cc2ccc(C)cc2)cn1` (stereo not drawn), > 26 µM (inactive). As to `O=C(c1ccccc1)C(CN1CCCC1)c1ccccc1` (stereo not drawn), the AC50 was > 26 µM (inactive).

For `O=C(N/N=C/c1c(O)ccc2ccccc12)c1[nH]ncc1Br`, the AC50 was > 26 µM (inactive).

For the molecule `CN(C)S(=O)(=O)c1ccc(Oc2ccc(S(=O)(=O)N(C)C)cc2)cc1`, the AC50 was > 26 µM (inactive). Regarding `Oc1ccc(/C=N/Nc2ncc(Br)cn2)c(O)c1`, the AC50 is > 26 µM (inactive). The result for `COc1ccc([N+](=O)[O-])c(S(=O)(=O)c2ccccc2)n1` reads > 26 µM (inactive). The figure for `COc1cc(C(=O)N/N=C(\c2ccccc2)c2ccccn2)cc(OC)c1OC` is > 26 µM (inactive); for `C=CCn1c(SCN2C(=O)c3ccccc3C2=O)nc2ccc(Cl)cc2c1=O` it is > 26 µM (inactive); for `O=[N+]([O-])c1ccc(/C=N/n2c(CO)nc3ccccc32)s1` it is > 26 µM (inactive). Turning to `Cc1nnc(N=c2ssnc2Cl)o1`, the AC50 is > 26 µM (inactive). The figure for `COc1cc(/C=C/C(=O)c2ccc([N+](=O)[O-])o2)ccc1O` is > 26 µM (inactive). Take `CCCCCCSc1cc(-c2nc3ccc(C)cn3c2NCCCC)ccc1OC`: the AC50 is > 26 µM (inactive).

With `Cc1csc2nc(NC(=O)c3ccccc3)sc(=O)c12`, the AC50 was > 26 µM (inactive). As for `COc1ccc(/C=C/C(=O)c2ccc([N+](=O)[O-])o2)cc1OC`, the AC50 is > 26 µM (inactive).

As to `O=C(c1ccc(Cl)cc1)C(CN1CCCCC1)c1ccccc1` (stereo not drawn), the AC50 is > 26 µM (inactive). For `C=C(C)C(=O)OCC(O)COc1ccc(C(C)(C)c2ccc(OCC(O)COC(=O)C(=C)C)cc2)cc1` (stereo not drawn), the AC50 is > 26 µM (inactive). For the molecule `O=C(Nc1ccc(F)cc1)Nc1cc(OCC(F)(F)F)cc(OCC(F)(F)F)c1`, the AC50 is > 26 µM (inactive). Turning to `Oc1ccc(CCNc2ncnc3ccc(Cl)cc23)cc1`, the AC50 was > 26 µM (inactive). On to `O=C(/C=C/c1ccc(F)cc1)NC(=S)NNC(=O)c1cnccn1`, for which the AC50 is > 26 µM (inactive). The figure for `CCN(CC)S(=O)(=O)c1ccc(NC(=O)Nc2cccc(C(F)(F)F)c2)cc1` is > 26 µM (inactive); for `CC(C)(C)c1cc[n+](C2=C([O-])c3ccccc3C(=O)/C2=N\S(=O)(=O)c2cccs2)cc1` it is > 26 µM (inactive). For `CC1CC(C)CN(S(=O)(=O)c2ccc(C(=O)NCCCn3ccnc3)cc2)C1` (stereo not drawn), the AC50 is > 26 µM (inactive). Take `O=C(Oc1cccc2cccnc12)c1cccc(N2C(=O)C3C4CCC(C4)C3C2=O)c1` (stereo not drawn): the AC50 was > 26 µM (inactive).

`Cc1ccc(Oc2nc(-c3ccccn3)nc3ccccc23)cc1`: the AC50 is > 26 µM (inactive). The figure for `O=C(NCc1nc(-c2ccc(C(F)(F)F)cc2)no1)Nc1cc(Cl)cc(Cl)c1` is > 26 µM (inactive).

In the case of `CCCOc1ccc(/C=N/Nc2cc(N3CCOCC3)ncn2)c(O)c1`, the AC50 is > 26 µM (inactive).

`O=C(Nc1cccc(NC(=O)c2ccccc2Cl)c1)c1ccc([N+](=O)[O-])o1`: the AC50 was > 26 µM (inactive). For `CCOC(=O)c1[nH]cnc1N=Nc1c(O)ccc2ccccc12`, the AC50 is > 26 µM (inactive). On to `Oc1c(CN2CCN(c3ccc(F)cc3)CC2)cc(Cl)c2cccnc12`, for which the AC50 was > 26 µM (inactive). As to `CC(C)Nc1ccc(Nc2ccnc3cc4ccccc4cc23)cc1`, the AC50 is 3.23 µM. As for `CN(C)CCCNc1cc(C(C)(C)C)nc2c(-c3ccccc3)cnn12`, the AC50 is > 26 µM (inactive). As to `COc1ccc(O)c(/C=N/NC(=O)c2ccc(CSc3nc(C)cc(C)n3)cc2)c1`, the AC50 is > 26 µM (inactive). With `CCOc1ccc2nc(NC(=O)c3ccccn3)sc2c1`, the AC50 was > 26 µM (inactive). Take `O=[N+]([O-])c1c(Nc2ccc(O)cc2)cc(Cl)c2nonc12`: the AC50 is > 26 µM (inactive). With `N#C/C(=C/c1ccc(N2CCCCCC2)o1)c1ccc(Cl)cc1`, the AC50 was > 26 µM (inactive). For `CSc1nc(N)nc2c1ncn2CC(=O)N1CCN(Cc2c(C)cc(C)cc2C)CC1`, the AC50 is > 26 µM (inactive). The result for `Cc1ccccc1NC(=S)N/N=C/c1ccc(O)cc1O` reads > 26 µM (inactive); that for `Brc1ccccc1CN1CCN(Cc2c[nH]c3ccccc23)CC1`, > 26 µM (inactive).

Turning to `C#CCOCCOCCOCCNc1nc(N2CCN(C(=O)CCCCCCCCCCNC(=O)[C@H]([C@@H](C)CC)n3cc(CCCCN=C(N)N)nn3)CC2)nc(N2CCN(C(=O)CCCCCCCCCCNC(=O)[C@H](CO)n3cc(CCCCCN)nn3)CC2)n1`, the AC50 is > 26 µM (inactive). In the case of `CN(C)CCCNc1c2ccccc2nc2ccccc12`, the AC50 was > 26 µM (inactive). Regarding `CCCCCCCCCCCCCCCC[n+]1cccc(C(=O)N(CC)CC)c1`, the AC50 is > 26 µM (inactive).

With `CCN(CC)c1ccc(N=C2C(=O)Nc3ccccc32)cc1`, the AC50 is > 26 µM (inactive). `Cc1ccc(C(=O)Nc2cccc3[nH]c(C(F)(F)F)nc23)cc1`: the AC50 was > 26 µM (inactive). For `C#CCOCCOCCOCCNc1nc(N2CCN(C(=O)CCCCCCCCCCNC(=O)[C@H](CCCCN)n3cc(C[C@@H](C)CC)nn3)CC2)nc(N2CCN(C(=O)CCCCCCCCCCNC(=O)[C@@H]([C@H](C)O)n3cc(C)nn3)CC2)n1`, the AC50 is > 26 µM (inactive). On to `CCOC(=O)c1c(C)[nH]c(C(=O)OCC(=O)NC(C)(C)C)c1C`, for which the AC50 is > 26 µM (inactive). Take `C/C(=N\NC(=O)c1cccc(Br)c1)c1ccccn1`: the AC50 is > 26 µM (inactive). `COc1cc2cc(C(=O)N3CCOCC3)cc(-c3ccc(C)cc3)c2cc1OC`: the AC50 is > 26 µM (inactive).

With `C=C1CCc2c([nH]c3ccc(OCC(C)C)cc23)C1=O`, the AC50 was > 26 µM (inactive). On to `CCOC(=O)c1cnc(-n2nc(C)cc2C)nc1NNc1nc(-c2ccccc2)cc(-c2ccccc2)n1`, for which the AC50 was > 26 µM (inactive). In the case of `c1ccc(-c2cc(-c3ccccc3)[n+](-c3ccccc3)c(-c3ccccc3)c2)cc1`, the AC50 was > 26 µM (inactive). The figure for `O=C(O)c1ccc(S(=O)(=O)/N=C2\C=C(Nc3ccccc3F)C(=O)c3ccccc32)cc1` is > 26 µM (inactive). Regarding `C=CCSc1nsc(NC(=O)Nc2ccc(F)cc2)n1`, the AC50 is > 26 µM (inactive). Regarding `COc1cccc(/C=N/Nc2ccc([N+](=O)[O-])cn2)c1O`, the AC50 is > 26 µM (inactive). For the molecule `C#CCOCCOCCOCCNc1nc(N2CCN(C(=O)CCCCCCCCCCNC(=O)[C@H](CCCCN)n3cc(C)nn3)CC2)nc(N2CCN(C(=O)CCCCCCCCCCNC(=O)[C@@H]([C@H](C)CC)n3cc(CCCCCN)nn3)CC2)n1`, the AC50 is > 26 µM (inactive). For the molecule `COc1ccc2c(c1)C(=O)[C@@H](O)[C@H](c1ccc(OC)c(Br)c1)O2`, the AC50 is > 26 µM (inactive).

On to `C/C(=N\NC(N)=S)c1ccncc1`, for which the AC50 is > 26 µM (inactive).

`Cc1ccc(S(=O)(=O)NCc2ccncc2)cc1C`: the AC50 is > 26 µM (inactive). For the molecule `Oc1cccc2ccc(Nc3ccccn3)nc12`, the AC50 is > 26 µM (inactive).

As for `CCCCCCCCCCOC(=O)Cn1c(COc2ccccc2)[n+](C)c2ccccc21`, the AC50 was > 26 µM (inactive). For the molecule `O=C(Nc1ccc(N2CCN(C(=O)c3ccc(Cl)cc3)CC2)cc1)c1cccnc1`, the AC50 is > 26 µM (inactive).
